Measurements as given in patent US9676788B2, “Aza-epoxy-guaiane derivatives and treatment of cancer” (The United States of America, as represented by the …, priority 2014, dated 2017).
Where “and” joins values, the source holds several entries; their conditions need not be identical. Identical values can stand only once. Like-named read-outs stand apart in the source and are kept apart here.

Assays:
SK-MEL-5 = experiment: NCI 60-cell line protocol, Melanoma SK-MEL-5; conditions: SK-MEL-5 (Melanoma); single dose 10 μM; two days exposure; SRB endpoint
Method: (§1) Samples were tested in the standard National Cancer Institute 60-cell line protocol. First, they were tested against all 60 cell lines in a single final concentration of 10 micromolar. Then, they were separately tested in five 10-fold dilutions. The drug exposure was for two days, with an SRB endpoint.
(§2) Samples were tested in the standard National Cancer Institute 60-cell line protocol. The dosing protocol was a single dose of the compound at 10 μM concentration.

RPMI-8226 = experiment: NCI 60-cell line protocol, Leukemia RPMI-8226; conditions: RPMI-8226 (Leukemia); single dose 10 μM; two days exposure; SRB endpoint
Method: as §1, §2

UACC-257 = experiment: NCI 60-cell line protocol, Melanoma UACC-257; conditions: UACC-257 (Melanoma); single dose 10 μM; two days exposure; SRB endpoint
Method: as §1, §2

A498 (renal cancer) = experiment: NCI 60-cell line protocol, Renal Cancer A498; assay type: cell-based, human; conditions: SRB endpoint; for A498 one dose (%): one-dose protocol, single final concentration of 10 micromolar, two days; for GI50: Homo sapiens, A498, 48 h, five 10-fold dilutions, two days exposure
K-562 = experiment: NCI 60-cell line protocol, Leukemia K-562; conditions: K-562 (Leukemia); single dose 10 μM; two days exposure; SRB endpoint
Method: as §1, §2

MALME-3M = experiment: NCI 60-cell line protocol, Melanoma MALME-3M; conditions: MALME-3M (Melanoma); single dose 10 μM; two days exposure; SRB endpoint
Method: as §1, §2

ACHN (renal cancer) = experiment: NCI 60-cell line protocol, Renal Cancer ACHN; assay type: cell-based, human; conditions: SRB endpoint; for ACHN one dose (%): one-dose protocol, single final concentration of 10 micromolar, two days; for GI50: Homo sapiens, ACHN, 48 h, five 10-fold dilutions, two days exposure
MDA-MB-435 = experiment: NCI 60-cell line protocol, Melanoma MDA-MB-435; conditions: MDA-MB-435 (Melanoma); single dose 10 μM; two days exposure; SRB endpoint
Method: as §1, §2

M14 = experiment: NCI 60-cell line protocol, Melanoma M14; conditions: single dose 10 μM, two days exposure, SRB endpoint
Method: as §1, §2

HS 578T (breast cancer) = experiment: NCI 60-cell line protocol, Breast Cancer HS 578T; assay type: cell-based, human; conditions: SRB endpoint; for HS 578T one dose (%): one-dose protocol, single final concentration of 10 micromolar, two days; for GI50: Homo sapiens, Hs-578T, 48 h, five 10-fold dilutions, two days exposure
UACC-62 = experiment: NCI 60-cell line protocol, Melanoma UACC-62; conditions: UACC-62 (Melanoma); single dose 10 μM; two days exposure; SRB endpoint
Method: as §1, §2

CCRF-CEM = experiment: NCI 60-cell line protocol, Leukemia CCRF-CEM; conditions: single dose 10 μM, two days exposure, SRB endpoint
Method: as §1, §2

LOX IMVI = experiment: NCI 60-cell line protocol, Melanoma LOX IMVI; conditions: single dose 10 μM, two days exposure, SRB endpoint
Method: as §1, §2

HL-60(fB) = experiment: NCI 60-cell line protocol, Leukemia HL-60(fB); assay type: cell-based, human; conditions: HL-60(fB) (Leukemia); single dose 10 μM; two days exposure; SRB endpoint
SK-MEL-2 = experiment: NCI 60-cell line protocol, Melanoma SK-MEL-2; conditions: SK-MEL-2 (Melanoma); single dose 10 μM; two days exposure; SRB endpoint
Method: as §1, §2

MOLT-4 = experiment: NCI 60-cell line protocol, Leukemia MOLT-4; assay type: cell-based, human; conditions: MOLT-4 (Leukemia); single dose 10 μM; two days exposure; SRB endpoint
SA = experiment: NCI 60-cell line protocol, Leukemia SA; assay type: cell-based, human; conditions: single dose 10 μM, two days exposure, SRB endpoint
SK-MEL-28 = experiment: NCI 60-cell line protocol, Melanoma SK-MEL-28; conditions: SK-MEL-28 (Melanoma); single dose 10 μM; two days exposure; SRB endpoint
Method: as §1, §2

[1] = Plasma concentration in mice 30 minutes after oral gavage, by dose (LC-MS); assay type: in vivo
Method: Mice were dosed at 5 mg/kg, 10 mg/kg, 50 mg/kg, and 100 mg/kg compound 9 in Labrasol vehicle via oral gavage. 30 minutes after dosing, plasma was assayed for the concentration of compound 9 using LC-MS. The results are depicted graphically in FIG. 5.

[2] = Plasma concentration in mice over time after oral gavage (LC-MS/MS); assay type: in vivo
Method: Ten mice were administered 50 mg/kg of compound 9 in Labrasol vehicle via oral gavage. Two mice at a time were sacrificed at the following time points: 5 min, 15 min, 1 h, 4 h, and 8 h. Plasma concentrations of compound 9 were measured by LC-MS/MS, and the results set forth in Table 4 and depicted graphically in FIG. 7.
It was subsequently discovered that an error was made in weighing out compound 9 for formulation of a 5 mg/mL solution in Labrasol. The underweight formulation was confirmed to be about 40% of the expected concentration.

SMILES | Growth Percent (SK-MEL-5) [%] | Growth Percent (RPMI-8226) [%] | Growth Percent (UACC-257) [%] | A498 one dose (%) (A498 (renal cancer)) | Growth Percent (K-562) [%] | Growth Percent (MALME-3M) [%] | ACHN one dose (%) (ACHN (renal cancer)) | Growth Percent (MDA-MB-435) [%] | Growth Percent (M14) [%] | HS 578T one dose (%) (HS 578T (breast cancer)) | Growth Percent (UACC-62) [%] | Growth Percent (CCRF-CEM) [%] | Growth Percent (LOX IMVI) [%] | Growth Percent (SK-MEL-2) [%] | Growth Percent (SA) [%] | Growth Percent (SK-MEL-28) [%] | GI50 (A498 (renal cancer)) [nM] | GI50 (ACHN (renal cancer)) [nM] | GI50 (HS 578T (breast cancer)) [nM] | also measured
CC1CCC2C1C(OC(=O)/C=C/c1ccccc1)C1(C(C)C)CC(NC(=O)CF)C2(C)O1 (centres unmarked) [Compound 31] | 110.24 | 94.34 | 104.8 | 83.31 | 106.42 | 106.46 | 104.52 | 106.48 | 96.67 | 92.63 | 99.56 | 88.63 | 102.48 | 116.95 | 85.46 | 109.79 |  |  |  | Growth Percent (HL-60(fB)): 104.52%; Growth Percent (MOLT-4): 96.46%
CC(C)[C@@]12C[C@@H](NC(=O)CO)[C@@](C)(O1)[C@@H]1CC[C@@H](C)[C@H]1[C@@H]2OC(=O)c1ccc2ccccc2c1 [Compound 12] |  |  |  | −15.23 |  |  | 8.40 |  |  | −18.26 |  |  |  |  |  |  | 1600 | 5400 | 2200 | 
CC(C)[C@@]12C[C@@H](NC(=O)CO)[C@@](C)(O1)[C@@H]1CC[C@@H](C)[C@H]1[C@@H]2OC(=O)/C=C/C1CCCCC1 [Compound 11] |  |  |  | 41.34 |  |  | 99.90 |  |  | 73.09 |  |  |  |  |  |  | 5600 | 17000 | 6200 | 
C/C(=C\C(=O)OC1C2C(C)CCC2C2(C)OC1(C(C)C)CC2NC(=O)CO)c1ccccc1 (centres unmarked) [Compound 10] | 101.11 | 125.43 | 92.39 | −24.59 | 92.32 | 95.9 | 27.88 | 105.86 | 100.16 | −8.92 | 101.83 | 94.07 | 100.2 | 104.13 | 117.13 | 117.95 | 1100 | 3300 | 2200 | 
CC1CCC2C1C(OC(=O)/C=C/c1ccccc1)C1(C(C)C)CC(NC(=O)CO)C2(C)O1 (centres unmarked) [Compound 9] |  |  |  | −15.20 |  |  | 8.01 |  |  | 9.45 |  |  |  |  |  |  | 160 | 4000 | 830 | concentration at 30 min ([1]; mouse, plasma, 100 mg/kg oral gavage in Labrasol, 30 minutes after dosing): ~700 ng/mL; oral bioavailability ([1]; oral gavage 5-100 mg/kg in Labrasol): orally bioavailable; [Aza-Englerin] (ng/mL), single animal ([2]; mice plasma, 50 mg/kg oral gavage in Labrasol, time 0.0833 hr, 50 mg/kg): 13.20 ng/mL; [Aza-Englerin] (ng/mL), single animal ([2]; mice plasma, 50 mg/kg oral gavage in Labrasol, time 0.2500 hr, 50 mg/kg): 22.76 ng/mL and 58.70 ng/mL; [Aza-Englerin] (ng/mL), single animal ([2]; mice plasma, 50 mg/kg oral gavage in Labrasol, time 1.0000 hr, 50 mg/kg): 59.24 ng/mL; [Aza-Englerin] (ng/mL), single animal ([2]; mice plasma, 50 mg/kg oral gavage in Labrasol, time 4.0000 hr, 50 mg/kg): 31.12 ng/mL and 86.81 ng/mL; [Aza-Englerin] (ng/mL), single animal ([2]; mice plasma, 50 mg/kg oral gavage in Labrasol, time 8.0000 hr, 50 mg/kg): 48.21 ng/mL; oral bioavailability ([2]; mice, oral gavage 50 mg/kg in Labrasol): orally bioavailable; absorption ([2]; mice, oral gavage in Labrasol): rapidly absorbed; time for which plasma concentrations are sustained ([2]; mice, oral gavage in Labrasol): greater than 8 h; concentration at 5 min ([2]; mouse, plasma, po, 50 mg/kg, mice plasma, 50 mg/kg oral gavage in Labrasol, time 0.0833 hr, mean of two mice, read-out: [Aza-Englerin] Mean): 10 ng/mL; concentration at 5 min ([2]; mouse, plasma, po, 50 mg/kg, mice plasma, 50 mg/kg oral gavage in Labrasol, time 0.0833 hr, read-out: [Aza-Englerin] (ng/mL), single animal): 6.87 ng/mL; concentration at 0.25 h ([2]; mouse, plasma, po, 50 mg/kg, mice plasma, 50 mg/kg oral gavage in Labrasol, time 0.2500 hr, mean of two mice, read-out: [Aza-Englerin] Mean): 40.7 ng/mL; concentration at 1 h ([2]; mouse, plasma, po, 50 mg/kg, mice plasma, 50 mg/kg oral gavage in Labrasol, time 1.0000 hr, mean of two mice, read-out: [Aza-Englerin] Mean): 73.2 ng/mL; concentration at 1 h ([2]; mouse, plasma, po, 50 mg/kg, mice plasma, 50 mg/kg oral gavage in Labrasol, time 1.0000 hr, read-out: [Aza-Englerin] (ng/mL), single animal): 87.2 ng/mL; concentration at 4 h ([2]; mouse, plasma, po, 50 mg/kg, mice plasma, 50 mg/kg oral gavage in Labrasol, time 4.0000 hr, mean of two mice, read-out: [Aza-Englerin] Mean): 59 ng/mL; concentration at 8 h ([2]; mouse, plasma, po, 50 mg/kg, mice plasma, 50 mg/kg oral gavage in Labrasol, time 8.0000 hr, mean of two mice, read-out: [Aza-Englerin] Mean): 67.8 ng/mL; concentration at 8 h ([2]; mouse, plasma, po, 50 mg/kg, mice plasma, 50 mg/kg oral gavage in Labrasol, time 8.0000 hr, read-out: [Aza-Englerin] (ng/mL), single animal): 87.3 ng/mL; AUC(0-t) ([2]; mouse, mice plasma, 50 mg/kg oral gavage in Labrasol, SE=97.3 hr*ng/mL): 524 ng·h/mL
